Measurements as given in ChEMBL document CHEMBL1143517, “Synthesis and in vitro leishmanicidal activity of 2-(5-nitro-2-furyl) and 2-(5-nitro-2-thienyl)-5-substituted-1,3,4-thiadiazoles” (Bioorg Med Chem Lett, 2005).

These compounds were tested on Leishmania major (assay: In vitro inhibition of growth of Leishmania major promastigotes with the compound dissolved in DMSO using 3-H thymidine incorporation).
Type: functional, organism-based

| Compound | IC50 [µM] |
| --- | --- |
| CN1CCN(c2nnc(-c3ccc([N+](=O)[O-])s3)s2)CC1 | 103 |
| CC(=O)N1CCN(c2nnc(-c3ccc([N+](=O)[O-])s3)s2)CC1 | 48.5 |
| O=[N+]([O-])c1ccc(-c2nnc(N3CCN(c4ccccc4)CC3)s2)o1 | 0.1 |
| CN1CCN(c2nnc(-c3ccc([N+](=O)[O-])o3)s2)CC1 | 7.3 |
| O=C(c1ccccc1)N1CCN(c2nnc(-c3ccc([N+](=O)[O-])s3)s2)CC1 | 11.1 |
| O=[N+]([O-])c1ccc(-c2nnc(N3CCNCC3)s2)o1 | 8.9 |
| O=[N+]([O-])c1ccc(-c2nnc(N3CCCCC3)s2)s1 | > 150 |
| CC(=O)N1CCN(c2nnc(-c3ccc([N+](=O)[O-])o3)s2)CC1 | 1.1 |
| O=[N+]([O-])c1ccc(-c2nnc(N3CCOCC3)s2)o1 | 5.2 |
| O=C(c1ccccc1)N1CCN(c2nnc(-c3ccc([N+](=O)[O-])o3)s2)CC1 | 0.5 |
| O=[N+]([O-])c1ccc(-c2nnc(N3CCNCC3)s2)s1 | > 150 |
| O=[N+]([O-])c1ccc(-c2nnc(N3CCN(c4ccccc4)CC3)s2)s1 | 106 |
| O=[N+]([O-])c1ccc(-c2nnc(N3CCOCC3)s2)s1 | 10.6 |
| O=[N+]([O-])c1ccc(-c2nnc(N3CCCCC3)s2)o1 | 3.2 |
